Usually pIC50 stands for −log10 of the IC50, conventionally taken in molar units.

Consider 13 molecules from patent publication US20220251141A1, “IMMUNOMODULATORS” (Bristol-Myers Squibb Company, priority 2019, published 2022).

pIC50: −log10 of the molar value. Structures can show the parent of a compound that is named as a salt. Numbered stars: 1 amine (or outer) side, 2 acyl side, 3 side chain; on linkers, the order of the positions; unused ones are H or OH. Bridge positions count the residues as written; N and C are the ends. Square brackets hold non-standard residues; d marks the D form. Side chains are listed from the residue outwards. Peptide text beside a SMILES is read from it. * marks the point of attachment. X6 = CC(C)C[C@H](N[*:1])C(=O)C1C[C@H](O)C[C@H]1C(=O)[*:2]; Trp(1-CH2CO2Me) = COC(=O)Cn1cc(C[C@H](N)C(=O)O)c2ccccc21; Trp(1-CH2COOH) = N[C@@H](Cc1cn(CC(=O)O)c2ccccc12)C(=O)O; NHCH2CH2Ph(3,4-OCH2O) = c1cc2c(cc1CCN*)OCO2; Phe(4-F) = N[C@@H](Cc1ccc(F)cc1)C(=O)O; NHCH2CHPh2 = c1ccc(C(CN*)c2ccccc2)cc1; Dab(CONH2) = NC(=O)NCC[C@H](N)C(=O)O; Hyp = O=C(O)[C@@H]1C[C@@H](O)CN1; NHcycloheptyl = C1CCCC(N*)CC1; NMeNle = CCCC[C@H](NC)C(=O)O; Pen = CC(C)(S)[C@H](N)C(=O)O; NMeC = CN[C@@H](CS)C(=O)O; Pip = O=C(O)[C@@H]1CCCCN1; NMeA = CN[C@@H](C)C(=O)O; X7 = COc1ccc(CN*)c(OC)c1; Dab = NCC[C@H](N)C(=O)O; Dap = NC[C@H](N)C(=O)O; NH(heptyl) = CCCCCCCN*; Boc = CC(C)(C)OC(=O)*; CO = O=C([*:1])[*:2]; Piv = CC(C)(C)C(=O)*; Tfa = O=C(C(F)(F)F)*

The assay deals with T1, PD-1/PD-L1 (Homo sapiens, UniProt Q9NZQ7).
T1 construct: TVMV protease site linker (C); made in house; host or cells: HEK293T cells
As to the kind of experiment: PD-1/PD-L1 Homogenous Time-Resolved Fluorescence (HTRF) binding assay. The note with it: PD-L1-His 10 nM final, PD-1-Ig 20 nM final; inhibitors pre-incubated with PD-L1-His for 15 m. The procedure, abridged:
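Compounds pre-incubated 15 min with human PD-L1(18-239)-His (10 nM final), then PD-1(25-167)-Ig (20 nM final) added for 15 min, in dPBS with 0.1% BSA and 0.05% Tween-20. Eu-cryptate anti-Ig (1 nM) and APC anti-His (20 nM) added, 30 min equilibration, 665/620 nm ratio read; IC50 reported.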
On the technique in general: In TR-FRET formats the signal depends on donor and acceptor labels being close together.
As for `CCCC[C@H]1C(=O)N(C)[C@@H](CCCC)C(=O)N[C@@H](CC(C)C)C(=O)N[C@H](C(=O)NCC(N)=O)CSCC(=O)N[C@@H](Cc2ccc(O)cc2)C(=O)N(C)[C@@H](C)C(=O)N[C@@H](CC(N)=O)C(=O)N2CCC[C@H]2C(=O)N[C@@H](CNC(=O)NCC(c2ccccc2)c2ccccc2)C(=O)N[C@@H](CC(C)C)C(=O)N2C[C@H](O)C[C@H]2C(=O)N[C@@H](Cc2c[nH]c3ccccc23)C(=O)N[C@@H](CCNC(=O)NCC(c2ccccc2)c2ccccc2)C(=O)N[C@@H](Cc2cn(CC(=O)O)c3ccccc23)C(=O)N1C` [Example 1042] ({CH2CO}-Y[NMeA]NP[Dap]([CO-NHCH2CHPh2])L[Hyp]W[Dab]([CO-NHCH2CHPh2])[Trp(1-CH2COOH)][NMeNle][NMeNle]LCG-NH2; thioether N-14), the pIC50 was 7.94. Regarding `CCCC[C@H]1C(=O)N(C)[C@@H](CCCC)C(=O)N[C@@H](CC(C)C)C(=O)N[C@H](C(=O)NCC(N)=O)CSCC(=O)N[C@@H](Cc2ccc(O)cc2)C(=O)N(C)[C@@H](C)C(=O)N[C@@H](CC(N)=O)C(=O)N2CCC[C@H]2C(=O)N[C@@H](CNC(=O)NCc2ccc(OC)cc2OC)C(=O)N[C@@H](CC(C)C)C(=O)N2C[C@H](O)C[C@H]2C(=O)N[C@@H](Cc2c[nH]c3ccccc23)C(=O)N[C@@H](CCN)C(=O)N[C@@H](Cc2cn(CC(=O)O)c3ccccc23)C(=O)N1C` [Example 1043] ({CH2CO}-Y[NMeA]NP[Dap]([CO-X7])L[Hyp]W[Dab][Trp(1-CH2COOH)][NMeNle][NMeNle]LCG-NH2; thioether N-14), the negative-log IC50 (pIC50) is 8.52. As to `CCCC[C@H]1C(=O)N(C)[C@@H](CCCC)C(=O)N[C@@H](CC(C)C)C(=O)N[C@H](C(=O)NCC(N)=O)CSCC(=O)N[C@@H](Cc2ccc(O)cc2)C(=O)N(C)[C@@H](C)C(=O)N[C@@H](CC(N)=O)C(=O)N2CCC[C@H]2C(=O)N[C@@H](CNC(=O)NCc2ccc(OC)cc2OC)C(=O)N[C@@H](CC(C)C)C(=O)N2C[C@H](O)C[C@H]2C(=O)N[C@@H](Cc2c[nH]c3ccccc23)C(=O)N[C@@H](CCNC(=O)NCc2ccc(OC)cc2OC)C(=O)N[C@@H](Cc2cn(CC(=O)O)c3ccccc23)C(=O)N1C` [Example 1044] ({CH2CO}-Y[NMeA]NP[Dap]([CO-X7])L[Hyp]W[Dab]([CO-X7])[Trp(1-CH2COOH)][NMeNle][NMeNle]LCG-NH2; thioether N-14), the negative logarithm of the IC50 (pIC50) was 8.59. As to `CCCC[C@H]1C(=O)N(C)[C@@H](CCCC)C(=O)N[C@@H](CC(C)C)C(=O)N[C@H](C(=O)NCC(N)=O)CSCC(=O)N[C@@H](Cc2ccc(O)cc2)C(=O)N(C)[C@@H](C)C(=O)N[C@@H](CC(N)=O)C(=O)N2CCC[C@H]2C(=O)N[C@@H](CNC(=O)NC2CCCCCC2)C(=O)N[C@@H](CC(C)C)C(=O)N2C[C@H](O)C[C@H]2C(=O)N[C@@H](Cc2c[nH]c3ccccc23)C(=O)N[C@@H](CCNC(=O)NC2CCCCCC2)C(=O)N[C@@H](Cc2cn(CC(=O)O)c3ccccc23)C(=O)N1C` [Example 1045] ({CH2CO}-Y[NMeA]NP[Dap]([CO-NHcycloheptyl])L[Hyp]W[Dab]([CO-NHcycloheptyl])[Trp(1-CH2COOH)][NMeNle][NMeNle]LCG-NH2; thioether N-14), the negative logarithm of the IC50 (pIC50) is 8.34. As to `CCCC[C@H]1C(=O)N(C)[C@@H](CCCC)C(=O)N[C@@H](CC(C)C)C(=O)N[C@H](C(=O)NCC(N)=O)CSCC(=O)N[C@@H](Cc2ccc(O)cc2)C(=O)N(C)[C@@H](C)C(=O)N[C@@H](CC(N)=O)C(=O)N2CCC[C@H]2C(=O)N[C@@H](CNC(=O)C(F)(F)F)C(=O)N[C@@H](CC(C)C)C(=O)N2C[C@H](O)C[C@H]2C(=O)N[C@@H](Cc2c[nH]c3ccccc23)C(=O)N[C@@H](CCN)C(=O)N[C@@H](Cc2cn(CC(=O)O)c3ccccc23)C(=O)N1C` [Example 1046] ({CH2CO}-Y[NMeA]NP[Dap](Tfa)L[Hyp]W[Dab][Trp(1-CH2COOH)][NMeNle][NMeNle]LCG-NH2; thioether N-14), the pIC50 was 8.59.

Molecule `CCCC[C@H]1C(=O)N(C)[C@@H](CCCC)C(=O)N[C@@H](CC(C)C)C(=O)N[C@H](C(=O)NCC(N)=O)CSCC(=O)N[C@@H](Cc2ccc(O)cc2)C(=O)N(C)[C@@H](C)C(=O)N[C@@H](CC(N)=O)C(=O)N2CCC[C@H]2C(=O)N[C@@H](CNC(=O)NCCc2ccc3c(c2)OCO3)C(=O)N[C@@H](CC(C)C)C(=O)N2C[C@H](O)C[C@H]2C(=O)N[C@@H](Cc2c[nH]c3ccccc23)C(=O)N[C@@H](CCNC(=O)NCCc2ccc3c(c2)OCO3)C(=O)N[C@@H](Cc2cn(CC(=O)O)c3ccccc23)C(=O)N1C` [Example 1048] ({CH2CO}-Y[NMeA]NP[Dap]([CO-NHCH2CH2Ph(3,4-OCH2O)])L[Hyp]W[Dab]([CO-NHCH2CH2Ph(3,4-OCH2O)])[Trp(1-CH2COOH)][NMeNle][NMeNle]LCG-NH2; thioether N-14) gave a negative-log IC50 (pIC50) of 8.96. For `CCCC[C@H]1C(=O)N(C)[C@@H](CCCC)C(=O)N[C@@H](CC(C)C)C(=O)N[C@H](C(=O)NCC(N)=O)CSCC(=O)N[C@@H](Cc2ccc(O)cc2)C(=O)N(C)[C@@H](C)C(=O)N[C@@H](CC(N)=O)C(=O)N2CCC[C@H]2C(=O)N[C@@H](CNC(=O)OC(C)(C)C)C(=O)N[C@@H](CC(C)C)C(=O)C2C[C@H](O)C[C@H]2C(=O)N[C@@H](Cc2c[nH]c3ccccc23)C(=O)N[C@@H](CCNC(N)=O)C(=O)N[C@@H](Cc2cn(CC(=O)OC)c3ccccc23)C(=O)N1C` (stereo partly shown) [Example 2001] ({CH2CO}-Y[NMeA]NP[Dap](Boc)[X6]W[Dab(CONH2)][Trp(1-CH2CO2Me)][NMeNle][NMeNle]LCG-NH2; thioether N-13) the value was 8.47; for `CCCC[C@H]1C(=O)N(C)[C@@H](CCCC)C(=O)N[C@@H](CC(C)C)C(=O)N[C@H](C(=O)NCC(N)=O)CSCC(=O)N[C@@H](Cc2ccc(O)cc2)C(=O)N(C)[C@@H](C)C(=O)N[C@@H](CC(N)=O)C(=O)N2CCC[C@H]2C(=O)N[C@@H](CNC(=O)OC(C)(C)C)C(=O)N[C@@H](CC(C)C)C(=O)C2C[C@H](O)C[C@H]2C(=O)N[C@@H](Cc2c[nH]c3ccccc23)C(=O)N[C@@H](CCNC(=O)OC(C)(C)C)C(=O)N[C@@H](Cc2cn(CC(=O)OC)c3ccccc23)C(=O)N1C` (stereo partly shown) [Example 2002] ({CH2CO}-Y[NMeA]NP[Dap](Boc)[X6]W[Dab](Boc)[Trp(1-CH2CO2Me)][NMeNle][NMeNle]LCG-NH2; thioether N-13), 8.92. Consider `CCCCCCCNC(=O)NCC[C@@H]1NC(=O)[C@H](Cc2c[nH]c3ccccc23)NC(=O)[C@@H]2C[C@@H](O)CN2C(=O)[C@H](CC(C)C)NC(=O)[C@H](CNC(=O)NCCCCCCC)NC(=O)[C@@H]2CCCN2C(=O)[C@H](CC(N)=O)NC(=O)[C@H](C)N(C)C(=O)[C@H](Cc2ccc(O)cc2)NC(=O)CSC[C@@H](C(=O)NCC(N)=O)NC(=O)[C@H](CC(C)C)NC(=O)[C@H](CCCC)N(C)C(=O)[C@H](CCCC)N(C)C(=O)[C@H](Cc2cn(CC(=O)OC)c3ccccc23)NC1=O` [Example 2003] ({CH2CO}-Y[NMeA]NP[Dap]([CO-NH(heptyl)])L[Hyp]W[Dab]([CO-NH(heptyl)])[Trp(1-CH2CO2Me)][NMeNle][NMeNle]LCG-NH2; thioether N-14), for which the pIC50 is 7.62. Molecule `CCCC[C@H]1C(=O)N(C)[C@@H](CCCC)C(=O)N[C@@H](CC(C)C)C(=O)N(C)[C@H](C(N)=O)CSCC(=O)N[C@@H](Cc2ccc(F)cc2)C(=O)N2CCCC[C@H]2C(=O)N[C@@H](CC(=O)N(C)C)C(=O)N2CCC[C@H]2C(=O)N[C@@H](Cc2c[nH]cn2)C(=O)N[C@@H](CC(C)C)C(=O)N2C[C@H](O)C[C@H]2C(=O)N[C@@H](Cc2c[nH]c3ccccc23)C(=O)N[C@@H](CO)C(=O)N[C@@H](Cc2cn(CC(=O)O)c3ccccc23)C(=O)N1C` [Example 10002] ({CH2CO}-[Phe(4-F)][Pip]D(NMe2)PHL[Hyp]WS[Trp(1-CH2COOH)][NMeNle][NMeNle]L[NMeC]-NH2; thioether N-14) had a pIC50 of 7.28. For `CCCC[C@H]1C(=O)N(C)[C@@H](CCCC)C(=O)N[C@@H](CC(C)C)C(=O)N(C)[C@H](C(N)=O)CSCC(=O)N[C@@H](Cc2ccc(F)cc2)C(=O)N2CCCC[C@H]2C(=O)N[C@@H](CC(=O)O)C(=O)N2CCC[C@H]2C(=O)N[C@@H](CN)C(=O)N[C@@H](CC(C)C)C(=O)N2C[C@H](O)C[C@H]2C(=O)N[C@@H](Cc2c[nH]c3ccccc23)C(=O)N[C@@H](CCN)C(=O)N[C@@H](Cc2cn(CC(=O)O)c3ccccc23)C(=O)N1C` [Example 10003] ({CH2CO}-[Phe(4-F)][Pip]DP[Dap]L[Hyp]W[Dab][Trp(1-CH2COOH)][NMeNle][NMeNle]L[NMeC]-NH2; thioether N-14) the value was 7.92; for `CCCC[C@H]1C(=O)N(C)[C@@H](CCCC)C(=O)N[C@@H](CC(C)C)C(=O)N(C)[C@H](C(N)=O)CSCC(=O)N[C@@H](Cc2ccc(F)cc2)C(=O)N2CCCC[C@H]2C(=O)N[C@@H](CC(=O)O)C(=O)N2CCC[C@H]2C(=O)N[C@@H](Cc2c[nH]cn2)C(=O)N[C@@H](CC(C)C)C(=O)N2C[C@H](O)C[C@H]2C(=O)N[C@@H](Cc2c[nH]c3ccccc23)C(=O)N[C@@H](CO)C(=O)N[C@@H](Cc2cn(CC(=O)O)c3ccccc23)C(=O)N1C` [Example 10004] ({CH2CO}-[Phe(4-F)][Pip]DPHL[Hyp]WS[Trp(1-CH2COOH)][NMeNle][NMeNle]L[NMeC]-NH2; thioether N-14), 7.96. For the molecule `CCCC[C@H]1C(=O)N(C)[C@@H](CCCC)C(=O)N[C@@H](CC(C)C)C(=O)N[C@H](C(N)=O)C(C)(C)SCC(=O)N[C@@H](Cc2ccc(F)cc2)C(=O)N2CCCC[C@H]2C(=O)N[C@@H](CC(N)=O)C(=O)N2CCC[C@H]2C(=O)N[C@@H](CNC(=O)C(C)(C)C)C(=O)N[C@@H](CC(C)C)C(=O)N2C[C@H](O)C[C@H]2C(=O)N[C@@H](Cc2c[nH]c3ccccc23)C(=O)N[C@@H](CCN)C(=O)N[C@@H](Cc2cn(CC(=O)O)c3ccccc23)C(=O)N1C` [Example 20010] ({CH2CO}-[Phe(4-F)][Pip]NP[Dap](Piv)L[Hyp]W[Dab][Trp(1-CH2COOH)][NMeNle][NMeNle]L[Pen]-NH2; thioether N-14), the pIC50 is 8.31.
